Laboratory results from PubChem BioAssay (NCI).
Values joined by “and” are separate entries in the source; they are usually repeats but may differ in a detail not shown here. Equal entries are not always repeated.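 Dose response: 5 concentrations. Exposure: 48 h. Format: 96-well plates. Endpoint: linear interpolation; highest concentration if not reached. GI50 is the concentration that inhibits growth by half. TGI: concentration producing complete growth inhibition.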

Key:
Assay in all cases: NCI-60 cell line screen, 48 h
NCI-H226 lung = system: NCI-H226 lung
SK-MEL-5 melanoma = system: SK-MEL-5 melanoma
MDA-MB-231 breast = system: MDA-MB-231 breast
RPMI-8226 leukemia = system: RPMI-8226 leukemia
RXF 393 renal = system: RXF 393 renal
MCF7 breast = system: MCF7 breast
KM12 colon = system: KM12 colon
PC-3 prostate = system: PC-3 prostate
HL-60(TB) leukemia = system: HL-60(TB) leukemia
NCI-H460 lung = system: NCI-H460 lung

Row | Compound | GI50 (NCI-H226 lung) | TGI (NCI-H226 lung) | GI50 (SK-MEL-5 melanoma) | TGI (SK-MEL-5 melanoma) | GI50 (MDA-MB-231 breast) | TGI (MDA-MB-231 breast) | GI50 (RPMI-8226 leukemia) | TGI (RPMI-8226 leukemia) | GI50 (RXF 393 renal) | TGI (RXF 393 renal) | GI50 (MCF7 breast) | TGI (MCF7 breast) | GI50 (KM12 colon) | TGI (KM12 colon) | GI50 (PC-3 prostate) | TGI (PC-3 prostate) | GI50 (HL-60(TB) leukemia) | TGI (HL-60(TB) leukemia) | GI50 (NCI-H460 lung) | TGI (NCI-H460 lung)
1 | CCN(CC)c1nc(-c2ccc(Cl)cc2Cl)nc2ccccc12 | 12.4 µM | 31.2 µM | 17.8 µM | 33.3 µM | 4.2 µM | 23.2 µM | 32.1 µM | > 100 µM | 17.2 µM | 42.5 µM | 22.2 µM | > 68 µM | 20.2 µM | 59.8 µM | 24.1 µM | > 63.3 µM | 26.2 µM | > 100 µM | 23.9 µM | > 79.5 µM
2 | N=c1ccn2c(n1)OC1C(O)C(CO)OC12 (stereo not given) | 120 µM and > 79 µM | > 719 µM | 10.4 µM | > 1000 µM | > 100 µM | > 1000 µM | 3.97 µM | > 1000 µM | > 25.1 µM | > 1000 µM | 0.0703 µM | 361 µM and > 100 µM | 147 µM and > 40.9 µM | > 806 µM | > 100 µM | > 1000 µM | 0.763 µM | 69.7 µM and > 23.6 µM | 0.242 µM | 168 µM and > 100 µM
3 | Cn1cnc([N+](=O)[O-])c1S(=O)(=O)Oc1ccccc1 | 19.8 µM | 60 µM | 17.3 µM | 34.2 µM | 15.5 µM | 47.9 µM | 4.69 µM | 17.6 µM | 2.23 µM | 6.04 µM | 7.82 µM | > 44.3 µM | 26.2 µM | > 78.4 µM | 20.6 µM | 62 µM | 12.1 µM | 34.4 µM | 23.9 µM | > 72.8 µM
4 | Oc1cc(O)c2c(c1)OC(c1ccc(O)c(O)c1)C(OC1(c3cc(O)c(O)c(O)c3)Oc3cc(O)cc(O)c3C(O)C1O)C2 (stereo not given) | – | 50.9 µM | – | 34 µM | – | 45.8 µM | – | 49.5 µM | – | > 100 µM | – | 40.2 µM | – | > 70.9 µM | – | > 100 µM | – | 52.8 µM | – | 36.8 µM
5 | Nc1c(C(=O)Nc2cccc(Br)c2)sc2nc3c(cc12)C(=O)CCC3 | 16.8 µM | > 100 µM | 0.4 µM | > 100 µM | 1.68 µM | 61.1 µM | > 49.9 µM | > 100 µM | 0.372 µM | 15.9 µM | 0.373 µM | > 100 µM | 0.349 µM | > 100 µM | 0.457 µM | > 100 µM | 0.408 µM | > 100 µM | 0.373 µM | > 100 µM
6 | C=CC(=O)N1CCC(C2CCNc3c(C(N)=O)c(-c4ccc(Oc5ccccc5)cc4)nn32)CC1 (stereo not given) | 11.1 µM | 69.4 µM | 10.6 µM | 22.9 µM | 19.2 µM | 92.5 µM | 12.4 µM | 39.5 µM | 9.22 µM | 26.6 µM | 12.3 µM | 59.4 µM | 22.9 µM | 67 µM | 22 µM | 69.6 µM | 14.6 µM | 40.3 µM | 31.4 µM | > 100 µM
7 | CC1(C)OCCn2c1nc1c(N3CCOCC3)nc(-c3cnc(N)nc3)nc12 | 0.227 µM | 8.75 µM | 0.346 µM | 2.9 µM | 0.457 µM | > 89.2 µM | 2.14 µM | 12.5 µM | 0.211 µM | 1.69 µM | 0.077 µM | > 100 µM | 0.761 µM | > 100 µM | 0.318 µM | > 68.6 µM | 0.141 µM | > 31.3 µM | 0.187 µM | > 100 µM
8 | Cc1nc2ccccc2nc1-c1ccc(N=[N+]([O-])c2ccc(-c3nc4ccccc4nc3C)cc2)cc1 | – | > 100 µM | – | > 100 µM | – | > 80.2 µM | – | > 100 µM | – | > 95.1 µM | – | > 100 µM | – | > 100 µM | – | > 100 µM | – | > 100 µM | – | > 100 µM
9 | CCCCCCNC(=O)c1nc(-c2ccccc2)oc1Cc1ccc(OP(=O)(O)O)cc1 | 17 µM | 33.5 µM | 16.8 µM | 30.7 µM | 17.2 µM | 36.6 µM | 20.4 µM | 49 µM | 16.7 µM | 31.3 µM | 15.3 µM | 29.9 µM | 17.5 µM | 33.2 µM | 17.9 µM | 34.5 µM | 25.2 µM | 62.4 µM | 20.2 µM | 43 µM
